US10364222B2, “Cyclic amine derivative and medical use thereof” (Toray Industries, Inc., priority 2016, dated 2019)

Key:
[1] = tested on: imiquimod-induced mouse psoriasis model; assay: Imiquimod-induced mouse psoriasis model; format: in vivo; settings: BALB/c mice; 10 mg/kg orally once daily from 3 to 7 days after induction; vs vehicle, Student's t-test P<0.05
Method: Using increase in the ear thickness as an index of exacerbation of symptoms, the effect of the cyclic amine derivative (I) or a pharmacologically acceptable salt thereof in an imiquimod-induced mouse psoriasis model was evaluated. The imiquimod-induced mouse psoriasis model was prepared by a partially modified method by Schaper et al. (The Journal of Dermatological Science, 2013, Vol. 71, No. 1, p. 29-36).
BALB/c mice (male, 7 weeks old) (Charles River Laboratories Japan, Inc.) were used at 8 weeks old after preliminary breeding. To induce psoriasis-like symptoms, 5 mg each of BESELNA CREAM 5% was applied once daily to the outside of the right and left auricles of the mice for 8 days from the day of first administration of imiquimod (hereinafter referred to as induction day) to 7 days after induction (dose of imiquimod, 0.5 mg/body/day).
The test compound at a dose of 10 mg/kg was administered to the mice once daily for 5 days from 3 days after induction to 7 days after induction. As the test compound, the compound of Example 20, the compound of Example 29, and the compound of Example 57 were used. The compound of Example 20, the compound of Example 29, and the compound of Example 57 were suspended in a 0.5 w/v % methylcellulose solution and orally administered. The group in which the compound of Example 20 was administered to mice was defined as the Example-20 compound administration group, the group in which the compound of Example 29 was administered was defined as the Example-29 compound administration group, and the group in which the compound of Example 57 was administered was defined as the Example-57 compound administration group. In the vehicle administration group, a vehicle of each test compound (0.5 w/v % methylcellulose solution) was similarly administered.
The right and left ear thickness before administration of imiquimod (before induction) on the induction day and the right and left ear thickness on the 8th day after induction were measured with a digital micrometer (Mitutoyo Corporation). […]

[2] = tested on: DNFB-induced mouse allergic dermatitis model; assay: DNFB-induced mouse allergic dermatitis model; format: in vivo; settings: BALB/c mice; 10 mg/kg orally one hour before induction; 24th hour after induction; vs vehicle, Student's t-test P<0.05
Method: Using increase in the ear swelling rate as an index of exacerbation of symptoms, the effect of the cyclic amine derivative (I) or a pharmacologically acceptable salt thereof in a DNFB-induced mouse allergic dermatitis model was evaluated. The DNFB-induced mouse allergic dermatitis model was prepared by a partially modified method by Curzytek et al. (Pharmacological Reports, 2013, Vol. 65, p. 123′7-1246).
BALB/c mice (female, 6 weeks old) (Charles River Laboratories Japan, Inc.) were used at 7 weeks old after preliminary breeding. To the back of the mice, 25 μL of a 0.5 v/v % DNFB solution dissolved in acetone:olive oil (4:1) was applied. The next day, the same operation was repeated to sensitize the mice. Four days after the sensitization, 10 μL each of a 0.2 v/v % DNFB solution dissolved in acetone:olive oil (4:1) was applied to both sides of the right auricle of the sensitized mice to induce inflammation.
One hour before induction, the compound of Example 20, the compound of Example 29, or the compound of Example 57 was administered at a dose of 10 mg/kg to the mice. The compound of Example 20, the compound of Example 29, and the compound of Example 57 were suspended in a 0.5 w/v % methylcellulose solution and orally administered. The group in which the compound of Example 20 was administered to mice was defined as the Example-20 compound administration group, the group in which the compound of Example 29 was administered was defined as the Example-29 compound administration group, and the group in which the compound of Example 57 was administered was defined as the Example-57 compound administration group. […]
The right ear thickness before application of the DNFB solution (before induction) on the induction day and the right ear thickness at the 24th hour after induction were measured with a digital micrometer (Mitutoyo Corporation). The swelling rate of the auricle was calculated by Formula 3 and used as an index of the drug efficacy evaluation. […]

Compound	change in the ear thickness (ear thickness on the 8th day after induction − before induction) [1]	ear swelling rate (%) [2]
CN(CC(=O)N1CCCC[C@@H]1C(=O)Nc1ccc(-c2ccccc2OC(F)(F)F)c(Cl)c1)S(C)(=O)=O [Example 29, (R)-N-(2-chloro-2′-(trifluoromethoxy)-[1,1′-biphenyl]-4-yl)-1-(2-(N-methylmethylsulfonamide)acetyl)piperidine-2-carboxamide]	statistically significantly suppressed	statistically significantly suppressed
CC(=O)N1CCCC[C@@H]1C(=O)Nc1ccc(-c2ccccc2OC(F)(F)F)c(Cl)c1 [Example 20, (R)-1-acetyl-N-(2-chloro-2′-(trifluoromethoxy)-[1,1′-biphenyl]-4-yl)piperidine-2-carboxamide]	statistically significantly suppressed	statistically significantly suppressed
O=C(Nc1ccc(-c2ccccc2OC(F)(F)F)c(Cl)c1)[C@H]1CCCCN1C(=O)Cn1cnnn1 [Example 57, (R)-1-(2-(1H-tetrazol-1-yl)acetyl)-N-(2-chloro-2′-(trifluoromethoxy)-[1,1′-biphenyl]-4-yl)piperidine-2-carboxamide]	statistically significantly suppressed	statistically significantly suppressed
